# Experimental data: patent US20260216105A1, “CAPSAICIN EMULSION COMPOSITION, PREPARATION METHOD THEREFOR, AND USE THEREOF” (priority 2022, published 2026)
# Tests used:
# Assay type in all cases: physicochemical
# physchem = conditions: for solubility at 24 h: 25 °C, thermodynamic from solid
# Procedure: About 3 g of each solvent was weighed according to Table 3, and an excess amount of capsaicin was added. The mixture was placed into a constant-temperature oscillator for oscillation for 24 h (25° C., 200 rpm), and then centrifuged at 10000 rpm for 30 min. The supernatant was taken to measure the capsaicin content. The solubility of CAP in different solvents (different pH buffers, commonly used oil phases, and water-soluble organic solvents) was measured, with the results shown in Table 3: […]
# [1] = Physical phenomena of active ingredient / water-soluble solvent / water ternary mixtures; conditions: for mass ratio of water:EtOH (x:1) forming a liquid-liquid phase separation state: both at 0 h and 24 h after standing; for formation of a liquid-liquid phase separation system with ethanol and water: bupivacaine:EtOH 1:2, ropivacaine:EtOH 1:10
# Procedure: (§1) A stock solution was prepared with a mass ratio of CAP:EtOH=1:5. Then, 0.5 g samples of the stock solution were taken and respectively added into PE tubes, and different amounts of water (based on mass ratio of water to CAP) were added according to Table 6. […]
# According to the protocols in Examples 4.1-4.3, the physical states of mixtures containing CAP and EtOH (at mass ratios of 1:1, 1:5, and 1:10) and different proportions of water (based on mass ratio of water to CAP) were studied at 0 h and 24 h after standing. […]
# as §1, with “bupivacaine:EtOH=1:2.” for “CAP:EtOH=1:5.”, “on” for “on mass”, “bupivacaine)” for “CAP)”, “14. The ternary mixtures were shaken and observed at 0 h and 24 h after standing.” for “6.”
# [2] = as above
smiles,measurement,setting,value
"COc1cc(CNC(=O)CCCC/C=C/C(C)C)ccc1O [CAP, capsaicin]",solubility at 24 h,"physchem; oil or lipid, Castor oil, shaken at 25° C. for 24 h",36000 µg/mL
same,solubility at 24 h,"physchem; oil or lipid, GDO, shaken at 25° C. for 24 h",45000 µg/mL
same,solubility at 24 h,"physchem; oil or lipid, MCT, shaken at 25° C. for 24 h",14000 µg/mL
same,solubility at 24 h,"physchem; organic solvent or mixture, DGME, shaken at 25° C. for 24 h",502000 µg/mL
same,solubility at 24 h,"physchem; organic solvent or mixture, DMI, shaken at 25° C. for 24 h",> 500000 µg/mL
same,solubility at 24 h,"physchem; organic solvent or mixture, Ethanol, shaken at 25° C. for 24 h",> 500000 µg/mL
same,solubility at 24 h,"physchem; organic solvent or mixture, Isopropanol, shaken at 25° C. for 24 h",> 500000 µg/mL
same,solubility at 24 h,"physchem; organic solvent or mixture, PEG200, shaken at 25° C. for 24 h",367000 µg/mL
same,solubility at 24 h,"physchem; organic solvent or mixture, Propylene glycol, shaken at 25° C. for 24 h",290000 µg/mL
same,solubility at 24 h,"physchem; organic solvent or mixture, in some water-soluble organic solvents",> 250000 µg/mL
same,solubility at 24 h,"physchem; pH 1, simulated gastric fluid, pH 1.0 hydrochloric acid medium, shaken at 25° C. for 24 h",45 µg/mL
same,solubility at 24 h,"physchem; pH 2, simulated gastric fluid, pH 2.0 hydrochloric acid medium, shaken at 25° C. for 24 h",52 µg/mL
same,solubility at 24 h,"physchem; pH 3, aqueous buffer, pH 3.0 phosphate medium, shaken at 25° C. for 24 h",44 µg/mL
same,solubility at 24 h,"physchem; pH 4, aqueous buffer, pH 4.0 acetate medium, shaken at 25° C. for 24 h",53 µg/mL
same,solubility at 24 h,"physchem; pH 5, aqueous buffer, pH 5.0 acetate medium, shaken at 25° C. for 24 h",52 µg/mL
same,solubility at 24 h,"physchem; pH 6, aqueous buffer, pH 6.0 phosphate medium, shaken at 25° C. for 24 h",46 µg/mL
same,solubility at 24 h,"physchem; pH 7, aqueous buffer, pH 7.0 phosphate medium, shaken at 25° C. for 24 h",45 µg/mL
same,solubility at 24 h,"physchem; pH 8, aqueous buffer, pH 8.0 phosphate medium, shaken at 25° C. for 24 h",42 µg/mL
same,solubility at 24 h,"physchem; pH 9, aqueous buffer, pH 9.0 carbonate medium, shaken at 25° C. for 24 h",53 µg/mL
same,solubility at 24 h,"physchem; pH 10, aqueous buffer, pH 10.0 carbonate medium, shaken at 25° C. for 24 h",102 µg/mL
same,Solubility,"physchem; Corn oil, shaken at 25° C. for 24 h",5000 µg/mL
same,Solubility,"physchem; Peanut oil, shaken at 25° C. for 24 h",5000 µg/mL
same,Solubility,"physchem; Rapeseed oil, shaken at 25° C. for 24 h",5000 µg/mL
same,mass ratio of water:EtOH (x:1) forming a liquid-liquid phase separation state,[1]; CAP:EtOH 1:1,0.65-2
same,mass ratio of water:EtOH (x:1) forming a liquid-liquid phase separation state,[1]; CAP:EtOH 1:5,1-2.2
same,mass ratio of water:EtOH (x:1) forming a liquid-liquid phase separation state,[1]; CAP:EtOH 1:10,1.4-2.5
same,formation of a liquid-liquid phase separation system with PEG200 and water,[1]; CAP:PEG200 1:3,could not form a liquid-liquid phase separation system
same,formation of a liquid-liquid phase separation system with PEG200 and water,[1]; CAP:PEG200 1:5 (increased mass of PEG200),failed to enable the formation of a liquid-liquid phase separation system
same,formation of a liquid-liquid phase separation system with propylene glycol and water,[1]; CAP:propylene glycol 1:5,failed to form a liquid-liquid phase separation system
same,mass ratio of water:DGME (x:1) forming a liquid-liquid phase separation system,[2]; CAP:DGME 1:1,1-2
same,mass ratio of water:DMI (x:1) forming a liquid-liquid phase separation system,[2]; CAP:DMI 1:3,0.3-2
same,mass ratio of water:IPA (x:1) forming a liquid-liquid phase separation system,[2]; CAP:IPA 1:1,0.5-2
CCCCN1CCCCC1C(=O)Nc1c(C)cccc1C (stereo not shown) [bupivacaine],formation of a liquid-liquid phase separation system with ethanol and water,[1],failed to form a liquid-liquid phase separation system
CCCN1CCCC[C@H]1C(=O)Nc1c(C)cccc1C [ropivacaine],formation of a liquid-liquid phase separation system with ethanol and water,[1],failed to form a liquid-liquid phase separation system
